Biological target: GCN2 kinase (Homo sapiens, UniProt Q9P2K8)
Assay: GCN2 enzyme inhibition assay (Transcreener ADP2 fluorescence polarization)
Assay type: biochemical
Conditions: Enzyme activity for compounds of Formula IV; Ki(app), 280 μM ATP, 25° C.
Outline: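 ADP formation read by Transcreener FP after a 1 h, 25 °C kinase reaction containing 280 μM ATP, 200 μM (RS)7 substrate and 4 nM GCN2, pH 7.5 Tris buffer. Compounds (0–8 μM final) were added 10 min before ATP. Percent inhibition gave IC50 and apparent Ki via tight-binding fit.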

GCN2 kinase, sequence (Q9P2K8 whole entry): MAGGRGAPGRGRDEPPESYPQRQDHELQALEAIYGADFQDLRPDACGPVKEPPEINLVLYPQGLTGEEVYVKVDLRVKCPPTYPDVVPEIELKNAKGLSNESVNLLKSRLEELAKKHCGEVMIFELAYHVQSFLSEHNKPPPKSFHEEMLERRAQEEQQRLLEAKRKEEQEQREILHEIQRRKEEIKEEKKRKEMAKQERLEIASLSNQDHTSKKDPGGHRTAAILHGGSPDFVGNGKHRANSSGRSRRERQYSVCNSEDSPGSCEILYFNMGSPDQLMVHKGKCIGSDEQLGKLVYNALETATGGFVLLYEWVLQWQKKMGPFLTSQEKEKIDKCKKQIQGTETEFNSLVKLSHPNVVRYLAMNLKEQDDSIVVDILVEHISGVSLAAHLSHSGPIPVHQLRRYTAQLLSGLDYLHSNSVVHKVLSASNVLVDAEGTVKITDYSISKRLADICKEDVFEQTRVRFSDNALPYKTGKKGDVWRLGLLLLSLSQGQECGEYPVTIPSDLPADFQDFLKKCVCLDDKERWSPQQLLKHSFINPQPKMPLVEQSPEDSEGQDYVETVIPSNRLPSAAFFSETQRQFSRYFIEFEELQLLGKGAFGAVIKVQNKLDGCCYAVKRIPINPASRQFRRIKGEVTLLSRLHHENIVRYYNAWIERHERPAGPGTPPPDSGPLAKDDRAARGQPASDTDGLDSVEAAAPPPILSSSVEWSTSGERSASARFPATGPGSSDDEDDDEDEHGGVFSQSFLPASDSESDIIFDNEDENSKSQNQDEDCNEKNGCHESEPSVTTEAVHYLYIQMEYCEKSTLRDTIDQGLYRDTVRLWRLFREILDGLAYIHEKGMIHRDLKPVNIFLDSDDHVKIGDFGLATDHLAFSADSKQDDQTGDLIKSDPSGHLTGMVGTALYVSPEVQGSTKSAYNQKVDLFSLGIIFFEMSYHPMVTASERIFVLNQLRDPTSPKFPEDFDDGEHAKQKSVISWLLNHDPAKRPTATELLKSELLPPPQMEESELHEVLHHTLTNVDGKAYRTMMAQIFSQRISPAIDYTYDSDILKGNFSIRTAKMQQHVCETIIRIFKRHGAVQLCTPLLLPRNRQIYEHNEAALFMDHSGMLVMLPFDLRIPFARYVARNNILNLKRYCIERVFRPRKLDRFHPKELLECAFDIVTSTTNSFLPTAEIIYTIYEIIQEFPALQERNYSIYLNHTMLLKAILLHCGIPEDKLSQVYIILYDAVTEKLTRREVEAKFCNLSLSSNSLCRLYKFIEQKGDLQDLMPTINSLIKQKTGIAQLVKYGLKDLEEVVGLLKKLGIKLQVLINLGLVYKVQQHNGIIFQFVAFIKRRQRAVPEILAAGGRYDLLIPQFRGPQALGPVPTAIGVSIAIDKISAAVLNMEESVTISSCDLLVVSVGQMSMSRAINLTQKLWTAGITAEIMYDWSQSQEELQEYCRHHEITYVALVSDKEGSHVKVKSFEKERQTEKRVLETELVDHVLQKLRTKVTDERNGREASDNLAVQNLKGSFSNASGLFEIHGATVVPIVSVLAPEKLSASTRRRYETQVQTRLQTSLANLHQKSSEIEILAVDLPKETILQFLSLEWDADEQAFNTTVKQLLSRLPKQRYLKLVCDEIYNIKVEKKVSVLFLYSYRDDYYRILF

Ki [nM]	SMILES
100 to 1000	FC(F)(F)c1cn2c(-c3nccc(N4CCC(Nc5cn[nH]c5)C4)n3)cnc2cn1 (stereo not drawn) [IV-606, N-(1-(2-(6-(Trifluoromethyl)imidazo[1,2-a]pyrazin-3-yl)pyrimidin-4-yl)pyrrolidin-3-yl)-1H-pyrazol-4-amine]
100 to 1000	CS(=N)(=O)CC1CCN(c2ccnc(-c3cnc4cnc(C(F)(F)F)cn34)n2)C1 (stereo not drawn) [IV-607, Imino(methyl)((1-(2-(6-(trifluoromethyl)imidazo[1,2-a]pyrazin-3-yl)pyrimidin-4-yl)pyrrolidin-3-yl)methyl)-λ^6-sulfanone]
100 to 1000	CC1CN(c2ccnc(-c3cnc4cnc(C(F)(F)F)cn34)n2)C(C)(C)C1 (stereo not drawn) [IV-610, 6-(Trifluoromethyl)-3-(4-(2,2,4-trimethylpyrrolidin-1-yl)pyrimidin-2-yl)imidazo[1,2-a]pyrazine]
100 to 1000	NC(=O)C1CCN(c2ccnc(-c3cnc4cnc(C(F)(F)F)cn34)n2)CC1 [IV-611, 1-(2-(6-(Trifluoromethyl)imidazo[1,2-a]pyrazin-3-yl)pyrimidin-4-yl)piperidine-4-carboxamide]
100 to 1000	NC(=O)N1CCN(c2ccnc(-c3cnc4cnc(C(F)(F)F)cn34)n2)CC1 [IV-612, 4-(2-(6-(Trifluoromethyl)imidazo[1,2-a]pyrazin-3-yl)pyrimidin-4-yl)piperazine-1-carboxamide]
100 to 1000	CC1COC(CO)CN1c1ccnc(-c2cnc3cnc(C(F)(F)F)cn23)n1 (stereo not drawn) [IV-613, (5-Methyl-4-(2-(6-(trifluoromethyl)imidazo[1,2-a]pyrazin-3-yl)pyrimidin-4-yl)morpholin-2-yl)methanol]
10 to 100	OCCCC1CCN(c2ccnc(-c3cnc4cnc(C(F)(F)F)cn34)n2)C1 (stereo not drawn) [IV-616, 3-(1-(2-(6-(Trifluoromethyl)imidazo[1,2-a]pyrazin-3-yl)pyrimidin-4-yl)pyrrolidin-3-yl)propan-1-ol]
100 to 1000	OCCN1CCN(c2ccnc(-c3cnc4cnc(C(F)(F)F)cn34)n2)CC1 [IV-617, 2-(4-(2-(6-(Trifluoromethyl)imidazo[1,2-a]pyrazin-3-yl)pyrimidin-4-yl)piperazin-1-yl)ethan-1-ol]
100 to 1000	O=C(CO)N1CCN(c2ccnc(-c3cnc4cnc(C(F)(F)F)cn34)n2)CC1 [IV-618, 2-Hydroxy-1-(4-(2-(6-(trifluoromethyl)imidazo[1,2-a]pyrazin-3-yl)pyrimidin-4-yl)piperazin-1-yl)ethan-1-one]
100 to 1000	CC(C)(O)CN1CCN(c2ccnc(-c3cnc4cnc(C(F)(F)F)cn34)n2)CC1 [IV-619, 2-Methyl-1-(4-(2-(6-(trifluoromethyl)imidazo[1,2-a]pyrazin-3-yl)pyrimidin-4-yl)piperazin-1-yl)propan-2-ol]
100 to 1000	N#CCCN1CCN(c2ccnc(-c3cnc4cnc(C(F)(F)F)cn34)n2)CC1 [IV-620, 3-(4-(2-(6-(Trifluoromethyl)imidazo[1,2-a]pyrazin-3-yl)pyrimidin-4-yl)piperazin-1-yl)propanenitrile]
100 to 1000	CNC(=O)C1CCN(c2ccnc(-c3cnc4cnc(C(F)(F)F)cn34)n2)C1 (stereo not drawn) [IV-625, N-Methyl-1-(2-(6-(trifluoromethyl)imidazo[1,2-a]pyrazin-3-yl)pyrimidin-4-yl)pyrrolidine-3-carboxamide]
100 to 1000	FC(F)(F)c1cn2c(-c3nccc(-n4ccc(C5CCCNC5)n4)n3)cnc2cn1 (stereo not drawn) [IV-634, 3-(4-(3-(Piperidin-3-yl)-1H-pyrazol-1-yl)pyrimidin-2-yl)-6-(trifluoromethyl)imidazo[1,2-a]pyrazine]
100 to 1000	Cc1nc(C2CCN(c3ccnc(-c4cnc5cnc(C(F)(F)F)cn45)n3)C2)n[nH]1 (stereo not drawn) [IV-641, 3-(4-(3-(5-Methyl-1H-1,2,4-triazol-3-yl)pyrrolidin-1-yl)pyrimidin-2-yl)-6-(trifluoromethyl)imidazo[1,2-a]pyrazine]
100 to 1000	FC(F)(F)c1cn2c(-c3nccc(N4CCC(c5nnc[nH]5)C4)n3)cnc2cn1 (stereo not drawn) [IV-642, 3-(4-(3-(4H-1,2,4-Triazol-3-yl)pyrrolidin-1-yl)pyrimidin-2-yl)-6-(trifluoromethyl)imidazo[1,2-a]pyrazine]

From patent publication US10988477B2 (Merck Patent GmbH, priority 2018, dated 2021)
